Reference: patent publication US8633227B2, “Synthesis and novel salt forms of (R)-3-((E)-pyrrolidin-3-yl)vinyl)-5-tetrahydropyran-4-yloxy)pyridine” (priority 2008, dated 2014)

How the values were obtained:
Preliminary salt screen = format: physicochemical; conditions: equi-millimolar base and acid, 2-propanol or acetonitrile, alternative solvents
Experimental: Test tubes (4 mL), provided with magnetic stir bars, were charged with equi-milimolar amounts of (R)-3-((E)-2-(pyrrolidin-3-yl)vinyl)-5-(tetrahydropyran-4-yloxy)pyridine base and the acid of interest (neat) and dissolved with 500 μL of either 2-propanol or acetonitrile with the aid of heat.
If no precipitation occurred, the solvent was evaporated under a nitrogen stream with moderate heating and an alternative solvent was tried. Alternative solvents included acetone, ethyl acetate, isopropyl acetate, absolute ethanol, acetonitrile, hexane, tert-butanol, tert-butyl acetate, and blends thereof.
The use of alcohols was avoided in the case of sulfonic acids.

panel of 65 receptors = assay: Multiple receptor screening assay; format: binding; conditions: single concentration of 10 μM
Experimental: (R)-3-((E)-2-(Pyrrolidin-3-yl)vinyl)-5-(tetrahydropyran-4-yloxy)pyridine or a salt thereof was tested for selectivity against a panel of 65 receptors.

normal rats = assay: Novel object recognition (NOR) task; format: in vivo, rat; conditions: for NOR time after dosing with statistically significant effect (out to / up to): 0.004 μmol/kg oral (FIG. 2)
Experimental: Memory was assessed by using a three-trial novel object recognition test (Luine et al., Pharm. Biochem. Behav. 74, 213-220 (2002)). On the first day (exploratory trial), rats were allowed to explore an open arena (44.5×44.5×30.5 cm) for 6 min. On the second day (acquisition trial), rats were allowed to explore the same arena in the presence of two identical objects (both object A) for 3 min. On the third day (retention or recall trial), performance was evaluated by allowing the same animal to re-explore the arena for 3 min in the presence of two different objects: the familiar object A and a novel object B. An inter-trial interval of 24 h was imposed between the three NOR trials. Recognition memory was assessed by comparing the time spent exploring a novel (object B) versus a familiar (object A) object during the recall trial. Recognition index was assessed for each animal and expressed as a ratio ((time B/time A+time B)×100).
(R)-3-((E)-2-(Pyrrolidin-3-yl)vinyl)-5-(tetrahydropyran-4-yloxy)pyridine or a salt thereof improved long-term visual episodic/declarative memory as assessed by novel object recognition (NOR) task following oral dosing in normal rats. […] In the two “recall only” sessions; subset of animals were orally dosed with water on day 1 (i.e., exploratory session) and day 2 (i.e., acquisition session) and then orally dosed either with 1.1 μmol/kg (R)-3-((E)-2-(pyrrolidin-3-yl)vinyl)-5-(tetrahydropyran-4-yloxy)pyridine or a salt thereof (left panel) or 0.04 μmol/kg (right panel) on day 3 (i.e., recall session). […] In the Figure, the dashed line at 65% denotes subjective criteria for biological cognitive enhancing activity. *P<0.05.
(R)-3-((E)-2-(Pyrrolidin-3-yl)vinyl)-5-(tetrahydropyran-4-yloxy)pyridine or a salt thereof was evaluated for its duration of effect in the NOR task in normal rats. […] In the Figure, the dashed line at 65% denotes subjective criteria for biological cognitive enhancing activity (*P<0.05).

[1] = parameters: species or system human
From the text: Therefore any variation of (R)-3-((E)-2-(pyrrolidin-3-yl)vinyl)-5-(tetrahydropyran-4-yloxy)pyridine or a salt thereof metabolism in human due to CYP polymorphism is expected to be less than 2 fold due to the significant renal clearance and low hepatic clearance.

| Compound | Result of preliminary salt screen (physical form obtained) (Preliminary salt screen) | also measured |
| --- | --- | --- |
| O=C(O)c1ccc2ccccc2c1O [1-Hydroxy-2-naphthoic (Xinafoic)] | brown gum |  |
| CC(=O)Nc1ccc(C(=O)O)cc1 [4-Acetamidobenzoic] | oil |  |
| O=C(O)c1ccc(O)cc1 [4-Hydroxybenzoic] | tacky gum |  |
| COc1ccc(C(=O)O)cc1 [4-Methoxybenzoic] | Oil |  |
| CC1(C)[C@@H](C(=O)O)CC[C@@]1(C)C(=O)O [(1 R,3S)-(+)-Camphoric] | oil |  |
| CC1(C)[C@@H]2CC[C@@]1(CS(=O)(=O)O)C(=O)C2 [(1 S)-(+)-1 O-Camphorsulfonic] | oil |  |
| C(=C\[C@H]1CCNC1)/c1cncc(OC2CCOCC2)c1.O=C(O)C[C@H](O)C(=O)O [(R)-3-((E)-2-(pyrrolidin-3-yl)vinyl)-5-(tetrahydropyran-4-yloxy)pyridine mono-L-malate] | Crystals |  |
| O=C(O)CCCCC(=O)O [Adipic] | oil |  |
| O=C(O)CC(O)(CC(=O)O)C(=O)O [Citric] | tacky gum |  |
| C(=C\[C@H]1CCNC1)/c1cncc(OC2CCOCC2)c1 [Compound A, (R)-3-((E)-2-(pyrrolidin-3-yl)vinyl)-5-(tetrahydropyran-4-yloxy)pyridine] |  | Multiple receptor screening assay, receptors hit (panel of 65 receptors): only to neuronal nicotinic receptors; Multiple receptor screening assay, receptors hit (panel of 65 receptors; listed as (R)-3-(2-(pyrrolidin-3-yl)vinyl)-5-((tetrahydro-2H-pyran-4-yl)oxy)pyridine): Only nicotinic; NOR time after dosing with statistically significant effect (out to / up to) (normal rats): ≤ 8 h; NOR time after dosing with statistically significant effect (out to / up to) (normal rats; listed as (R)-3-((E)-2-(pyrrolidin-3-yl)vinyl)-5-(tetrahydropyran-4-yloxy)pyridine): up to 8 h; NOR time after dosing with statistically significant effect (out to / up to) (normal rats; listed as Formula I): ≤ 8 h; NOR doses with statistically significant effect (as low as) (normal rats; FIG. 1): ≥ 0.004 µM/kg; NOR minimum effect dose (MED) level (normal rats; follow-up NOR study, oral, rats): 0.004 µmol/kg; NOR recognition index, recall only sessions (normal rats; single oral administration on day 3, 1.1 μmol/kg or 0.04 μmol/kg): recognition indexes significantly above controls; variation of metabolism due to CYP polymorphism [1]: less than 2 fold; renal clearance contribution to total clearance ([1]; human): more than 50% |
| O=C[C@H](O)[C@@H](O)[C@H](O)[C@H](O)C(=O)O [D-glucuronic] | brown gum |  |
| Cl [Hydrochloric] | red oil |  |
| O=C(O)/C=C\C(=O)O [Maleic] | Oil |  |
| O=C(O)CC(=O)O [Malonic] | Oil |  |
| CS(=O)(=O)O [Methanesulfonic] | Oil |  |
| O=C(O)CCC(=O)O [Succinic] | red oil |  |
| Cc1ccc(S(=O)(=O)O)cc1.O [p-Toluenesulfonic.H20] | Oil |  |
| Fumaric | oil |  |
| L-Tartaric | Oil |  |
